How the values were obtained:
[1] = tested on: E coli; experiment: Host tolerance to hydroxymethyl-3HP, relative OD after 24 hours; type: cell-based; conditions: 24 hours incubation at 30° C.
Experimental: (§1) FIG. 33(a) presents comparative tolerance data of potential host organisms to 3-hydroxymethyl 3-hydroxypropionic acid (HM3HP) where Km=K. marxianus, Sc=S. cerevisiae, Ec=E. coli (from Example 17). Within each grouping, the right bar represents Ec, the left bar represents Km, and the middle bar represents Sc.
(§2) Two eukaryotic strains, I. orientalis and S. cerevisiae, were tested for tolerance to the selected compounds at pH 3 and pH 5. The bacterial strains were grown at their individual optimal conditions, E coli and C. glutamicum at pH 8 and 30° C., and B. firmus and B. cohnii at pH 9 and 37° C. I. orientalis was grown in defined yeast media consisting of 5 g/L ammonium sulfate, 0.5 g/L magnesium sulfate heptahydrate, 3 g/L potassium phosphate monobasic, 10 g/L dextrose, 1 mL/L of 10% glycerol stock, 1 mL/L of 1000× trace. The 1000× trace stock solution contains 4 g/L ZnSO4.7H2O, 2 g/L FeSO4.7H2O, 1 g/L MnSO4.H2O, 0.2 g/L CuSO4.5H2O, and 0.8 mL/L H2SO4. S. cerevisiae was grown in buffered defined dextrose media consisting of 50 g/L dextrose, 5 g/L yeast extract, and 40 mL/L 25×DM salts. The 25×DM salt stock solution contains 125 g/L ammonium sulfate, 12.5 g/L magnesium sulfate heptahydrate, 75 g/L potassium phosphate monobasic, and 787.5 g/L water. The bacterial strains were grown in standard LB media consisting of 10 g/L bacto-tryptone, 5 g/L yeast extract, 10 g/L NaCl, and 20 g/L dextrose with addition of 20 g/L glucose.
(§3) In one embodiment, alpha substituted 3-hydroxypropionic acid is produced by the host organism. In a specific embodiment, alpha hydroxymethyl 3-hydroxypropionic acid is produced by the host organism. To evaluate host organisms, the protocol described above was used. The relative OD at the end of 24 hours incubation at 30° C. was compared for Kluyveromyces marxianus, S. cerevisiae, and E coli in the presence of different amounts of hydroxymethyl-3HP (FIG. 33(a)).

[2] = tested on: Kluyveromyces marxianus; experiment: as above; type: cell-based; conditions: K. marxianus, 24 hours incubation at 30° C.
Experimental: as §1, §2, §3

[3] = tested on: S. cerevisiae; experiment: as above; type: cell-based; conditions: 24 hours incubation at 30° C.
Experimental: as §1, §2, §3

[4] = Dehydration of HM3HP to HMA at different temperature and pH (NMR); type: physicochemical; conditions: overnight
Experimental: In the case of the microorganism producing alpha-substituted 3-hydroxymethyl acid, such as in Examples 9 and 21, this compound is dehydrated to alpha-substituted acrylic acid. In one embodiment, alpha-hydroxymethyl 3-hydroxypropionic acid (HM3HP) is dehydrated to alpha-hydroxymethyl acrylic acid (HMA). A known amount of HM3HP was dissolved into buffered solution. […] Samples were incubated at −20° C., 30° C., or 70° C. overnight. NMR analysis was used to measure the amount of HM3HP that was dehydrated to HMA. […] The pH of the solution had more effect on conversion to HMA than did changes in temperature.

O=C(O)C(CO)CO [alpha-hydroxymethyl 3-hydroxypropionic acid]
Tolerated concentration [1]: at least 60 g/L | Tolerated concentration [2]: at least 60 g/L | Tolerated concentration [3]: at least 60 g/L | Relative HMA levels ([4]; pH 3, 30 C.): 0.00 | Relative HMA levels ([4]; pH 3, 70 C.): 0.00 | Relative HMA levels ([4]; pH 3, −20 C.): 0.00 | Relative HMA levels ([4]; pH 7, 30 C.): 0.13 | Relative HMA levels ([4]; pH 7, 70 C.): 0.18 | Relative HMA levels ([4]; pH 7, −20 C.): 0.13 | Relative HMA levels ([4]; pH 10, 30 C.): 1.18 | Relative HMA levels ([4]; pH 10, 70 C.): 1.00 | Relative HMA levels ([4]; pH 10, −20 C.): 0.81

Source: patent US20180179499A1, “BIOBASED PRODUCTION OF FUNCTIONALIZED ALPHA-SUBSTITUTED ACRYLATES AND C4-DICARBOXYLATES” (BIOAMBER INC., priority 2015, published 2018)
